Laboratory results reported in ChEMBL document CHEMBL1154198, “Chemical genetics of Plasmodium falciparum” (Nature, 2010).

What was measured:
[1] = tested on: Plasmodium falciparum; assay: ST_JUDE: Plasmodium falciparum 3D7 EC50 (uM) as measured by SYBR green dye; format: functional, organism-based
[2] = tested on: Plasmodium falciparum; assay: ST_JUDE: Plasmodium falciparum K1 EC50 (uM) as measured by SYBR green dye; format: functional, organism-based

Row | SMILES | EC50 [1] | EC50 [2]
1 | Cc1[nH]c2c(-c3ccc(Cl)cc3)cnn2c(=O)c1Cc1ccccc1 | 6.84 µM | 6.88 µM
2 | CCOc1ccc(N2C(N)=NC(N)=NC2(C)C)cc1 | 0.238 µM | > 15 µM
3 | CCCS(=O)(=O)N1CCC(CO)(Cc2ccccc2C(F)(F)F)CC1 | 3.37 µM | 2.26 µM
4 | COc1ccc2c(c1)C(=NN=C(N)N)c1cc(OC)ccc1-2 | 0.506 µM | 1.01 µM
5 | OCCNc1nc(Nc2ccc(Cl)cc2)nc2ccccc12 | 1.02 µM | 3.2 µM
6 | COc1ccccc1/C=C/C(=O)Nc1ccc(Cl)c(C(F)(F)F)c1 | > 15 µM | > 15 µM
7 | O=C(Cc1cccc(F)c1)N1CCC(=O)N(CC2CC2)CC1 | > 15 µM | > 15 µM
8 | CCN(CC)c1ccc(CNC(C)C(O)c2ccccc2)cc1 (centres undefined) | 4.1 µM | 0.98 µM
9 | CC(C)c1ccc(CN(Cc2ccco2)C(=O)COc2ccccc2Cl)cc1 | 7.43 µM | > 15 µM
10 | Cc1ccc(CN2c3ccccc3C(O)=C(/C=N/c3ccc4c(c3)N3CCN=C3S4)S2(=O)=O)cc1 | 2.18 µM | > 15 µM
11 | CC(C)(C)CC(C)(C)c1ccc(O)c(CN2CCN(c3ccccc3)CC2)c1 | 0.354 µM | 0.174 µM
12 | CC(/C=N/NC(=O)c1cc(-c2ccc(OC(C)C)cc2)n[nH]1)=C\c1ccccc1 | > 15 µM | > 15 µM
13 | O=C(c1ccc(C(F)(F)F)cc1)N(Cc1ccc(OCc2ccc(F)cc2)cc1)Cc1cccnc1 | > 15 µM | > 15 µM
14 | Cc1ccc(C(NC(=O)CC(C)C)c2ccc3cccnc3c2O)cc1 (centres undefined) | > 15 µM | > 15 µM
15 | COc1ccccc1/C=C/CN1CCC2(CCC(CNC(=O)C3CCOCC3)O2)CC1 (centres undefined) | > 15 µM | > 15 µM
16 | O=C(Nc1cccc(Cl)c1)Nc1ccccc1OC(F)(F)C(F)F | 3.06 µM | 1.32 µM
17 | COc1ccc(CCNC(=S)Nc2ccccc2Cl)cc1 | 4.88 µM | 4.8 µM
18 | CCOC(=O)c1ccccc1NC(=S)N1CCCN(Cc2ccc(NC(C)=O)cc2)CC1 | 1.66 µM | 2.5 µM
19 | c1ccc(CN2CCN(c3nc(N(c4ccccc4)c4ccccc4)nc(-n4ccnc4)n3)CC2)cc1 | 2.46 µM | 1.81 µM
20 | CC(=O)c1cccc(CN2CCN(CC(C)C)C(CCO)C2)c1 (centres undefined) | > 15 µM | > 15 µM
21 | CCCc1cc(O)nc(-n2nc(C)cc2NC(=O)c2ccc(C(C)(C)C)cc2)n1 | > 15 µM | 8.64 µM

Row | SMILES | EC50 [1] | EC50 [2]
22 | COc1ccc2nc(N(Cc3cccnc3)C(=O)Cc3ccccc3)sc2c1 | 5.44 µM | 3.67 µM
23 | Cc1ccc(Nc2cc(C)nc(Nc3ccc(NS(=O)(=O)c4cccc(F)c4)cc3)n2)cc1 | 1.24 µM | > 15 µM
24 | COc1ccc(Nc2cc(C)nc(Nc3ccc(NS(=O)(=O)c4cccc(C)c4)cc3)n2)cc1 | 1.99 µM | > 15 µM
25 | Cc1ccc(C)c(C(Nc2ccccn2)c2cc(Cl)c3cccnc3c2O)c1 (centres undefined) | > 15 µM | > 15 µM
26 | O=C(NNc1nc2ccc(F)cc2s1)c1ccc(F)cc1 | > 15 µM | 7.1 µM
27 | COc1ccc(C2CC3=NC(C)=C(C(=O)OCC(C)C)C(c4ccc(F)cc4)C3=C(O)C2)cc1 (centres undefined) | 2.7 µM | 3.01 µM
28 | Oc1ccc(Nc2nc(-c3ccccc3)c3cc(Br)ccc3n2)cc1 | > 15 µM | 3.05 µM
29 | CCc1ccccc1NC(=O)C1c2ccccc2C(=O)N2CCc3ccccc3C12 (centres undefined) | 0.841 µM | 1.17 µM
30 | CCO/C(O)=C1\C(C)=NC2=C(C(=O)CC(C)(C)C2)C1c1ccc(Cl)cc1Cl (centres undefined) | 2.95 µM | 1.92 µM
31 | CN1C(=O)C(=Cc2ccc(-c3ccc(O)c(C(=O)O)c3)o2)C(=O)N(C)C1=O | > 15 µM | > 15 µM
32 | CCc1c(C)nc(-n2nc(C)cc2NC(=O)c2ccccc2I)nc1O | > 15 µM | > 15 µM
33 | CCCOC(=O)c1ccc(NC(=O)NC2CCCCC2)cc1 | > 15 µM | > 15 µM
34 | CCN(C(=O)c1cc2cc3ccc(OC)cc3nc2o1)c1ccc(F)cc1 | > 15 µM | > 15 µM
35 | CCOc1ccc(N(C(C)=O)C2=C(N3CCCCC3)C(=O)c3ccccc3C2=O)cc1 | 0.542 µM | > 15 µM
36 | CCc1ccc(C2C(C#N)=C(N)N(c3cccc(Cl)c3)C3=C2C(=O)CCC3)s1 (centres undefined) | > 15 µM | > 15 µM
37 | CCOC(=O)c1ccc2nc(C)cc(Nc3ccc(N(C)C)cc3)c2c1 | 2.85 µM | 3.81 µM
38 | COc1nc(N=C(N)N)nc2c(C)cccc12 | 2.42 µM | 3.41 µM
39 | CN(C)S(=O)(=O)c1ccc(C(=O)NNc2nc3ccc(Cl)cc3s2)cc1 | 4.68 µM | 4.5 µM
40 | CCCOc1ccc(Oc2nc(NCC)nc(OC)n2)nn1 | 1.87 µM | 4.24 µM
41 | CCCCCCCn1c(=N)n(CC(O)COc2ccccc2)c2ccccc21 (centres undefined) | 1.59 µM | 1.43 µM
42 | CC(=O)Nc1ccc(S(=O)(=O)Nc2ccc(Nc3nc(C)cc(N4CCCC4)n3)cc2)cc1 | 0.57 µM | 3.44 µM

Row | SMILES | EC50 [1] | EC50 [2]
43 | CCCCOC(=O)c1ccc(Nc2cc(C)nc3ccccc23)cc1 | 3.4 µM | > 15 µM
44 | Cc1cc(NC(=O)CSc2ccc3nnc(-c4ccc(Cl)cc4)n3n2)no1 | > 15 µM | > 15 µM
45 | COc1ccc(OC)c2sc(NNC(=O)c3ccc(S(=O)(=O)N(C)C)cc3)nc12 | 6.72 µM | 6.61 µM
46 | COc1ccc(C(=O)CSc2nnc(Cc3cc(O)nc(O)n3)n2-c2ccc(Cl)cc2)cc1 | > 15 µM | > 15 µM
47 | COc1ccc(C2C3=C(O)CC(c4ccccc4)CC3=NC(C)=C2C(=O)OCC(C)C)cc1OC (centres undefined) | > 15 µM | 3.92 µM
48 | CCCCOc1ccc(S(=O)(=O)Nc2ccc(Nc3nc(C)cc(N(C)C)n3)cc2)cc1 | 1.66 µM | > 15 µM
49 | CCOC(=O)C(NC(=O)CC)(Nc1ccc(S(=O)(=O)Nc2cc(C)on2)cc1)C(F)(F)F (centres undefined) | 4.49 µM | 8.98 µM
50 | CCOC(=O)c1cnc2ccc(OCC)cc2c1NCCCN1CCOCC1 | 1.08 µM | 2.36 µM
51 | CCCO/C(O)=C1\C(C)=NC2=C(C(=O)CC(c3ccc(Cl)cc3)C2)C1c1cccc(O)c1 (centres undefined) | 4.83 µM | 4.47 µM
52 | COc1cccc(Nc2nc(NCC3CCCO3)c3ccccc3n2)c1 (centres undefined) | 1.06 µM | 1.72 µM
53 | COc1ccc(C2Sc3ccccc3N=C3C2=C(O)c2ccccc23)cc1 (centres undefined) | 1.74 µM | 2.31 µM
54 | CCCOc1ccc(/C=C/c2ccc3cccc(O)c3n2)cc1 | > 15 µM | > 15 µM
55 | COc1ccc(Nc2cc(C)nc(Nc3ccc(NS(=O)(=O)c4ccc(C)cc4)cc3)n2)cc1 | 0.559 µM | > 15 µM
56 | COC(=O)c1c(S(=O)(=O)N2CCCCCC2)sc2c1CCN(Cc1ccc(F)c(OC)c1)C2 | > 15 µM | > 15 µM
57 | CN(C)S(=O)(=O)c1ccc(C(=O)NNc2nc3ccc(F)cc3s2)cc1 | 6.05 µM | 4.27 µM
58 | CC(C)CN1CCC(C(=O)Nc2ccc(-c3nc4ccccc4[nH]3)cc2)CC1 | > 15 µM | > 15 µM
59 | COc1cccc(OCC(=O)NCc2ccccc2)c1 | > 15 µM | > 15 µM
60 | Cc1ccc(NC(=O)C2c3ccccc3C(=O)N(CC(C)C)C2c2cccs2)nc1 (centres undefined) | 1.32 µM | 1.43 µM
61 | Cc1ccc(S(=O)(=O)N(CC(=O)N2CCCCCC2)Cc2ccc(Cl)cc2)cc1 | > 15 µM | > 15 µM
62 | CCC1CCCCN1CCCNC(=O)c1ccc2c(c1)sc1nc(-c3ccc(F)cc3)cn12 (centres undefined) | 0.463 µM | 1.3 µM
